# Results: patent publication US12590062B2, “PD-1/PD-L1 inhibitors” (Gilead Sciences, Inc., priority 2017, dated 2026)
# Legend:
# PD-1/PD-L1 interaction = biological target: T1, PD-1/PD-L1 interaction (Homo sapiens, UniProt Q9NZQ7); test: PD-1/PD-L1 NFAT reporter co-culture assay; type: cell-based; conditions: Jurkat PD-1 NFAT-luciferase cells co-cultured with aAPC-PD-L1 CHO cells, 6 hrs at 37° C.; read-out: EC50 NFAT Luciferase
# T1 construct: expressed in transfected cells; host or cells: CHO cells (aAPC-PD-L1) co-cultured with Jurkat cells overexpressing PD-1 and an NFAT-luciferase reporter
# T1 sequence (Q9NZQ7 19-290): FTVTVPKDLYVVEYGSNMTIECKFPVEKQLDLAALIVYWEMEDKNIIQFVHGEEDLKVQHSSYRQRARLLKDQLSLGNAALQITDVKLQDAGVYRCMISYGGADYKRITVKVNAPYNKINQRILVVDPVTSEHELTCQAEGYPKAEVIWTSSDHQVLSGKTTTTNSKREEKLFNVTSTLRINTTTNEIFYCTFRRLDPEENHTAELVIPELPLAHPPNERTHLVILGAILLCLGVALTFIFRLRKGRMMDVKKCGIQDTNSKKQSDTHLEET
# In short: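 First, CHO cells displaying anti-CD3 antibody and PD-L1 were plated overnight. Next, compound-treated PD-1 Jurkat NFAT-luciferase reporter cells in 2% FBS RPMI were added for 6 h at 37 °C. Finally, ONE-Glo luminescence was read and EC50 values fitted with a four-parameter equation.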
# PD-1/PD-L1 = PD-1/PD-L1 (Homo sapiens, UniProt Q9NZQ7); test: PD-1/PD-L1 biochemical protein-protein interaction assay (ALPHA); type: binding; conditions: 0.3 nM His tagged PD-L1, 2.5 nM biotinylated Fc-PD-1, 60 minutes at 25° C., read-out: IC50 PD-L1-PD-1 Alpha IC50-mono PD-L1-fcP-D1
# Sequence of PD-1/PD-L1 (Q9NZQ7 19-238 limits assumed): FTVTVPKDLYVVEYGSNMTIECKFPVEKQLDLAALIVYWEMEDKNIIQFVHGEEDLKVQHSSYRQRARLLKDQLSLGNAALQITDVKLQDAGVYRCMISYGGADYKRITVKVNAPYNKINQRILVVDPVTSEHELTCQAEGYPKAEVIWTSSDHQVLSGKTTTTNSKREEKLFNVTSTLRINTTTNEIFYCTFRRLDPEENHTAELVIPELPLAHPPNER
# In short: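 Compound blockade of the PD-1/PD-L1 extracellular-domain interaction measured as reduced ALPHA signal after 60 min at 25 °C, pH 7.4 Hepes buffer with EDTA, Tween 20 and BSA. Final proteins: His-tagged PD-L1 0.3 nM, biotinylated Fc-PD-1 2.5 nM; four-parameter curve fit gives IC50.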
# PD-L1 = biological target: T2, PD-L1 (Homo sapiens, UniProt Q9NZQ7); test: PD-L1/PD-L1 dimerization biochemical protein-protein interaction assay (ALPHA); type: binding; conditions: compound-induced PD-L1 dimerization, head prints '1 nM' (0.5 nM His-tagged PD-L1 and 0.5 nM FLAG-tagged PD-L1), read-out: AC50 PDL1 Dimer Alpha 1 nM
# T2 construct: determine if they can specifically dimerize the extracellular domains of PD-L1
# T2 sequence (Q9NZQ7 19-238 limits assumed): as above
# T2 sequence (Q9NZQ7 19-238 limits assumed): as above
# In short: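 After 2 h at 25 °C with compound, His- and FLAG-tagged PD-L1 ECDs (each 0.5 nM final; 25 mM Hepes pH 7.4, 150 mM NaCl) were detected by sequential anti-His acceptor and anti-FLAG donor bead incubations. Dose-response curves fitted to four-parameter equation for AC50.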
EC50 (PD-1/PD-L1 interaction),IC50 (PD-1/PD-L1),AC50 (PD-L1),SMILES
398 nM,0.124 nM,109 nM,"Cc1c(COc2cc(OCc3cncc(C#N)c3)c(CN[C@@](C)(CO)C(=O)O)cc2Cl)cccc1-c1cccc(-c2ccc(CN3CC[C@H](O)C3)cc2)c1C [Example 336, (S)-2-((5-chloro-2-((5-cyanopyridin-3-yl)methoxy)-4-((4″-(((S)-3-hydroxypyrrolidin-1-yl)methyl)-2,2′-dimethyl-[1,1′:3′,1″-terphenyl]-3-yl)methoxy)benzyl)amino)-3-hydroxy-2-methylpropanoic acid]"
1060 nM,0.179 nM,140 nM,"Cc1c(COc2cc(OCc3cncc(C#N)c3)c(CN[C@H]3CC[C@@H](C(=O)O)C3)cc2Cl)cccc1-c1cccc(-c2ccc(OCCNCCO)cc2)c1C [Example 338, (1R,3S)-3-((5-chloro-2-((5-cyanopyridin-3-yl)methoxy)-4-((4″-(2-((2-hydroxyethyl)amino)ethoxy)-2,2′-dimethyl-[1,1′:3′,1″-terphenyl]-3-yl)methoxy)benzyl)amino)cyclopentane-1-carboxylic acid]"
217 nM,0.087 nM,27.8 nM,"C[C@@](CO)(NCc1cc(Cl)c(OCc2cccc(-c3cccc(-c4ccc(OCCNCCO)cc4)c3Cl)c2Cl)nc1OCc1cncc(C#N)c1)C(=O)O [Example 340, (S)-2-(((5-chloro-2-((5-cyanopyridin-3-yl)methoxy)-6-((2,2′-dichloro-4″-(2-((2-hydroxyethyl)amino)ethoxy)-[1,1′:3′,1″-terphenyl]-3-yl)methoxy)pyridin-3-yl)methyl)amino)-3-hydroxy-2-methylpropanoic acid]"
284 nM,0.064 nM,38.3 nM,"Cc1c(COc2cc(OCc3cncc(C#N)c3)c(CNC[C@@H](O)CC(=O)O)cc2Cl)cccc1-c1cccc(-c2ccc(OCCNC[C@@H](O)CC(=O)O)cc2)c1Cl [Example 341, (S)-4-((4-((4″-(2-(((S)-3-carboxy-2-hydroxypropyl)amino)ethoxy)-2′-chloro-2-methyl-[1,1′:3′,1″-terphenyl]-3-yl)methoxy)-5-chloro-2-((5-cyanopyridin-3-yl)methoxy)benzyl)amino)-3-hydroxybutanoic acid]"
447 nM,0.4 nM,118 nM,"Cc1c(COc2cc(OCc3cncc(C#N)c3)c(CN[C@@](C)(CO)C(=O)O)cc2Cl)cccc1-c1cccc(-c2ccc(C3CCNC3)cc2)c1C (stereo partly drawn) [Example 342, (S)-2-((5-chloro-2-((5-cyanopyridin-3-yl)methoxy)-4-((2,2′-dimethyl-4″-((R)-pyrrolidin-3-yl)-[1,1′:3′,1″-terphenyl]-3-yl)methoxy)benzyl)amino)-3-hydroxy-2-methylpropanoic acid and(S)-2-((5-chloro-2-((5-cyanopyridin-3-yl)methoxy)-4-((2,2′-dimethyl-4″-((S)-pyrrolidin-3-yl)-[1,1′:3′,1″-terphenyl]-3-yl)methoxy)benzyl)amino)-3-hydroxy-2-methylpropanoic]"
158 nM,0.218 nM,81.1 nM,"Cc1c(COc2cc(OCc3cncc(C#N)c3)c(CN[C@@](C)(CO)C(=O)O)cc2Cl)cccc1-c1cccc(-c2ccc3c(c2)CC(N)C3)c1C (stereo partly drawn) [Example 343, (S)-2-((4-((3′-((R)-2-amino-2,3-dihydro-1H-inden-5-yl)-2,2′-dimethyl-[1,1′-biphenyl]-3-yl)methoxy)-5-chloro-2-((5-cyanopyridin-3-yl)methoxy)benzyl)amino)-3-hydroxy-2-methylpropanoic acid and(S)-2-((4-((3′-((S)-2-amino-2,3-dihydro-1H-inden-5-yl)-2,2′-dimethyl-[1,1′-biphenyl]-3-yl)methoxy)-5-chloro-2-((5-cyanopyridin-3-yl)methoxy)benzyl)amino)-3-hydroxy-2-methylpropanoic acid]"
475 nM,0.064 nM,55 nM,"Cc1c(COc2cc(OCc3cncc(C#N)c3)c(CN3CCCC[C@H]3C(=O)O)cc2Cl)cccc1-c1cccc(-c2ccc(OCCNCCO)cc2)c1C [Example 344, (S)-1-(5-chloro-2-((5-cyanopyridin-3-yl)methoxy)-4-((4″-(2-((2-hydroxyethyl)amino)ethoxy)-2,2′-dimethyl-[1,1′:3′,1″-terphenyl]-3-yl)methoxy)benzyl)piperidine-2-carboxylic acid]"
552 nM,0.09 nM,229 nM,"Cc1c(COc2cc(OCc3cncc(C#N)c3)c(CN3CC[C@@H](C(=O)O)C3)cc2Cl)cccc1-c1cccc(-c2ccc(OCCNCCO)cc2)c1C [Example 345, (R)-1-(5-chloro-2-((5-cyanopyridin-3-yl)methoxy)-4-((4″-(2-((2-hydroxyethyl)amino)ethoxy)-2,2′-dimethyl-[1,1′:3′,1″-terphenyl]-3-yl)methoxy)benzyl)pyrrolidine-3-carboxylic acid]"
214 nM,0.074 nM,181 nM,"Cc1c(COc2cc(OCc3cncc(C#N)c3)c(CNC[C@@H](O)CC(=O)O)cc2Cl)cccc1-c1cccc(NC(=O)c2ccc(CNC[C@@H](O)CC(=O)O)cn2)c1C [Example 346, (S)-4-(((6-((3′-((4-((((S)-3-carboxy-2-hydroxypropyl)amino)methyl)-2-chloro-5-((5-cyanopyridin-3-yl)methoxy)phenoxy)methyl)-2,2′-dimethyl-[1,1′-biphenyl]-3-yl)carbamoyl)pyridin-3-yl)methyl)amino)-3-hydroxybutanoic acid]"
142 nM,0.211 nM,125 nM,"Cc1c(COc2cc(OCc3cncc(C#N)c3)c(CNC[C@@H](O)CC(=O)O)cc2Cl)cccc1-c1cccc(-c2ccc3c(c2)c(C)nn3CCNC[C@@H](O)CC(=O)O)c1C [Example 347, (S)-4-((4-((3′-(1-(2-(((S)-3-carboxy-2-hydroxypropyl)amino)ethyl)-3-methyl-1H-indazol-5-yl)-2,2′-dimethyl-[1,1′-biphenyl]-3-yl)methoxy)-5-chloro-2-((5-cyanopyridin-3-yl)methoxy)benzyl)amino)-3-hydroxybutanoic acid]"
381 nM,0.122 nM,80.4 nM,"Cc1c(COc2cc(OCc3cncc(C#N)c3)c(CNC[C@@H](O)CC(=O)O)cc2Cl)cccc1-c1cccc(-c2ccc3c(CCNC[C@@H](O)CC(=O)O)coc3c2)c1C [Example 348, (S)-4-((4-((3′-(3-(2-(((S)-3-carboxy-2-hydroxypropyl)amino)ethyl)benzofuran-6-yl)-2,2′-dimethyl-[1,1′-biphenyl]-3-yl)methoxy)-5-chloro-2-((5-cyanopyridin-3-yl)methoxy)benzyl)amino)-3-hydroxybutanoic acid]"
527 nM,0.105 nM,252 nM,"Cc1c(COc2cc(OCc3cncc(C#N)c3)c(CNC[C@@H](O)CC(=O)O)cc2Cl)cccc1-c1cccc(-c2ncc(COCCNC[C@@H](O)CC(=O)O)s2)c1C [Example 350, (S)-4-((4-((3′-(5-((2-(((S)-3-carboxy-2-hydroxypropyl)amino)ethoxy)methyl)thiazol-2-yl)-2,2′-dimethyl-[1,1′-biphenyl]-3-yl)methoxy)-5-chloro-2-((5-cyanopyridin-3-yl)methoxy)benzyl)amino)-3-hydroxybutanoic acid]"
235 nM,0.982 nM,168 nM,"N#Cc1cc(C#N)cc(COc2nc(OCc3cccc(-c4cccc(-c5ccc(OCCNCCO)cc5)c4Cl)c3Cl)c(Cl)cc2CNC[C@@H](O)CC(=O)O)c1 [Example 351, (S)-4-(((5-chloro-6-((2,2′-dichloro-4″-(2-((2-hydroxyethyl)amino)ethoxy)-[1,1′:3′,1″-terphenyl]-3-yl)methoxy)-2-((3,5-dicyanobenzyl)oxy)pyridin-3-yl)methyl)amino)-3-hydroxybutanoic acid]"
105 nM,0.207 nM,56.3 nM,"C[C@@](CO)(NCc1cc(Cl)c(OCc2cccc(-c3cccc(-c4ccc(OCCNCCO)cc4)c3Cl)c2Cl)nc1OCc1cc(C#N)cc(C#N)c1)C(=O)O [Example 352, (S)-2-(((5-chloro-6-((2,2′-dichloro-4″-(2-((2-hydroxyethyl)amino)ethoxy)-[1,1′:3′,1″-terphenyl]-3-yl)methoxy)-2-((3,5-dicyanobenzyl)oxy)pyridin-3-yl)methyl)amino)-3-hydroxy-2-methylpropanoic acid]"
153 nM,0.311 nM,215 nM,"Cc1c(COc2cc(OCc3cncc(C#N)c3)c(CNC[C@@H](O)CC(=O)O)cc2Cl)cccc1-c1cccc(-c2ccc(OC[C@@H](N)CO)cc2)c1C [Example 353, (S)-4-((4-((4″-((S)-2-amino-3-hydroxypropoxy)-2,2′-dimethyl-[1,1′:3′,1″-terphenyl]-3-yl)methoxy)-5-chloro-2-((5-cyanopyridin-3-yl)methoxy)benzyl)amino)-3-hydroxybutanoic acid]"
